From patent publication US20110014164A1, “EFFICIENT INDUCTION OF PLURIPOTENT STEM CELLS USING SMALL MOLECULE COMPOUNDS” (PRESIDENT AND FELLOWS OF HARVARD COLLEGE, priority 2008, published 2011)

How the values were obtained:
Assay type in all cases: cell-based, mouse
[1] = tested on: uninfected MEFs; assay: Oct4-GFP induction in uninfected MEFs; settings: VPA treatment alone on uninfected MEFs
Description: (§1) Therefore, VPA partially reprograms MEFs towards more ES cell-like.

[2] = tested on: MEFs infected with Oct4, Sox2 and Klf4; assay: GFP positive iPS colony number in 3-factor infected MEFs
Description: FIG. 2(c) Representative pictures at 16 days post-infection showing a significant increase of GFP positive iPS colonies in 3-factor infected MEFs with VPA treatment compared to non-treated control.
Retroviral introduction of c-Myc could cause tumorigenecity in cells derived from the iPS cells thus generated^2. […] Similar low efficiency was also reported for induction of iPS cells from mouse fibroblasts without c-Myc^24. We tested whether treating the cells with 5′-azaC or VPA improves the efficiency of iPS colony formation without the need for c-Myc. MEFs were first infected with Oct4, Sox2 and Klf4, then treated with 5′-azaC or VPA for a week starting 1 day post-infection. […] Consistent with the FACS data, a 30-40 fold increase of GFP positive colonies was observed compared to control MEFs without treatment (FIG. 2c). This allowed for picking of iPS colonies within two weeks post-infection, sooner than the typical ˜30 days post-infection or later without chemical treatment^13, 24.
For the generation of mouse iPS cells, infected MEFs were cultured in mouse ES cell media until iPS colonies were ready to be picked. In some experiments, knockout serum replacement was used instead of the Hyclone FBS in the mouse ES cell media, which appeared to accelerate the reprogramming process, consistent with a recent report^26. […]

[3] = tested on: MEFs infected with the four factors (Oct4, Sox2, Klf4 and c-Myc); settings: 2 mM; 4-factor infected MEFs
Experimental: FIG. 1(a) MEFs infected with the four factors (Oct4, Sox2, Klf4 and c-Myc) were treated with various chemicals for a week, the percentage of Oct4-GFP positive cells induced was measured through FACS analysis, and compared to infected MEFs without treatment or treated with DMSO (the solvent for Dexamethasone, SAHA and TSA). The chemicals used were: 5′-azaC (2 μM), dexamethasone (dex, 1 μM), 5′-azaC (2 μM) together with dexamethasone (1 μM), VPA (2 mM), SAHA (5 μM) and TSA (20 nM). n=4 for each treatment. For all figures in this study, standard deviations are indicated by error bars, and P values by two-tailed student t-test less than 0.05, 0.01 and 0.001 are indicated by one, two and three asterisks respectively.
To quantitate reprogramming efficiency, we established an assay based on Fluorescence-Activated Cell Sorting (FACS) analysis using an Oct4-GFP transgenic reporter, where the expression of the green fluorescent protein (GFP) is controlled by the promoter and enhancers of Oct4, a pluripotent marker gene^14.
MEFs were derived from e13.5 embryos hemizygous for the Oct4-GFP transgenic allele. Embryos were sexed by inspecting gonads for the pattern of Oct4-GFP expression. Gonads and internal organs were removed before processing the embryos for MEF isolation. To generate iPS cells that can be identified in mouse chimeras after blastocyst injection, we derived MEFs from e13.5 embryos that are hemizygous for Oct4-GFP and heterozygous for the Rosa26-lacZ reporter allele. MEFs were grown in DMEM supplemented with 10% FBS, L-glutamine, penicillin/streptoMycin, nonessential amino acids, and sodium pyruvate. MEFs in early passages (up to passage 5) were used for generation of iPS cells.
Moloney-based retroviral vector (pMXs) containing the murine complementary DNAs of Oct4, Sox2, c-Myc, and Klf4 were obtained from Addgene^1. These plasmids were co-transfected into 293T cells with packaging vectors (pUMVC and pCMV-VSVG), and viral supernatants were collected 48 hours post-transfection to infect MEFs. Two to three rounds of infection were performed during a 48 hour period. The first day after viral supernatants were removed was defined as 0 day post-infection. Infected MEFs were subsequently cultured in mouse ES cell media (Knockout DMEM supplemented with 15% Hyclone FBS, L-glutamine, penicillin/streptoMycin, nonessential amino acids, β-mercaptoethanol, and with 1000 U/ml LIF), and treated with small molecules or growth factors for a week starting from 1 or 2 days post-infection. […] All conditions were tested in quadruplicates.

[4] = tested on: uninfected MEFs; assay: Microarray analysis on uninfected MEFs treated with VPA
Description: (a) Genes that were specifically expressed in ES cells and MEFs (>10 fold difference) were selected, and scatter plot was generated to visualize the effect of VPA treatment on the expression of these genes. Each blue dots represent one gene, and the position of the blue dot indicate the relative expression level, the average signal (AVE_signal), in MEFs treated with VPA versus untreated. The thick red line indicates identical expression levels. The two adjacent red lines indicate positions where VPA treatment causes a two fold up or down-regulation of the gene expression.
(b) Examples of the relative levels of expression of ES cell-specific transcripts (Rex3 and Zfp7) in ES cells, iPS-m cells, untreated MEFs and MEFs treated with VPA.
(c) Examples of the relative levels of expression of MEF-specific transcripts (Aspn and Meox2) in ES cells, iPS-m cells, untreated MEFs and MEFs treated with VPA.
as §1
For transcriptional analysis, total RNA was isolated from cells cultured in 6 well dishes using RNeasy Mini Kit and QlAshredder from Qiagen. Biotinylated antisense RNA were amplified using Illumina Total Prep RNA amplification Kit from Ambion, hybridized to Illumina Whole-Genome Expression BeadChips (MouseRef-8) and analyzed by Illumina Beadstation 500. All samples were prepared in two to three biological repeats. Data were analyzed using the Beadstudio software provided by Illumina.

[5] = uninfected MEFs, 2 mM VPA for a week

CCCC(CCC)C(=O)O [VPA, valproic acid]
induction of Oct4-GFP positive cells [1]: does not induce Oct4-GFP positive cells | increase of GFP positive colonies compared to control MEFs without treatment [2]: 30-40 fold | improvement over the non-treated control [3]: more than 100 fold | expression of ES cell-specific genes Rex3 and Zfp7 ([4]; MEFs treated with VPA versus untreated MEFs): up-regulated by more than twenty fold | expression of MEF-specific genes Aspn and Meox2 ([4]; VPA treated MEFs versus untreated MEFs): down-regulated by more than twenty fold | effect on endogenous c-Myc gene expression [4, 5]: did not have a significant effect | share of the 214 genes down-regulated >10 fold in ES cells that are down-regulated by more than two fold [4, 5]: 55% | share of the 214 genes down-regulated >10 fold in ES cells that are up-regulated by more than two fold [4, 5]: 6.2% | share of the 968 genes up-regulated >ten fold in ES cells that are down-regulated by more than two fold [4, 5]: 4.5% | share of the 968 genes up-regulated >ten fold in ES cells that are up-regulated by more than two fold [4, 5]: 66%
